The values below come from PMC4613797 (Journal of medicinal chemistry, 2015).

Structures are written as SMILES. A value given as a limit tells only on which side of the number the result lay.

For orientation: EC50 means the midpoint of the concentration-response curve.

For series [1], the target named is T1, Mouse CYP27B1 (Mus musculus, UniProt O35084).
T1 sequence (O35084 1-507): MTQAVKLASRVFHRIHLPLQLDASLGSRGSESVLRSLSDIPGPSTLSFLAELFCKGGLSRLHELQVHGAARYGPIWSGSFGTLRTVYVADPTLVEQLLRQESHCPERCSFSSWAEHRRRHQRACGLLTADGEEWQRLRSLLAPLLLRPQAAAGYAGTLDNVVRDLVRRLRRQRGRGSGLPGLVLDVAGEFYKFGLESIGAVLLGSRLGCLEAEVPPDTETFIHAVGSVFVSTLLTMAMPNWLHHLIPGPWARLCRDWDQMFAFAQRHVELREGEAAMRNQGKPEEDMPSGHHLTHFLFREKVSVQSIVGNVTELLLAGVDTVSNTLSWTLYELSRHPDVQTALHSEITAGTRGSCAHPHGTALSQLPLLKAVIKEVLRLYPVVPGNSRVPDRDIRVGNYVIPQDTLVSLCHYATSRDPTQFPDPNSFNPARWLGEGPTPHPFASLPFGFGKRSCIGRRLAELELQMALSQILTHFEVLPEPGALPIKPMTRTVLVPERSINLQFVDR
Briefly: Kinetics of 1α-hydroxylation. The conditions noted are these: for Km: 1α-hydroxylation by mouse CYP27B1, phospholipid vesicles, 2 min, ±SE of the curve fit. The format is in vitro ADME.

The test system of series [2] is vitamin D receptor (VDR). Put plainly: Lentiviral VDRE luciferase reporter assay in HaCaT cells. The format is cell-based, human. In general terms: In a reporter assay the amount or activity of a reporter protein is the signal.
In series [3] the test system is vitamin D receptor (VDR). Put plainly: Lentiviral VDRE luciferase reporter assay in Caco-2 cells. It counts as cell-based.
Series [4] concerns IFNγ production by mouse splenocytes. Briefly: IFNγ inhibition assay in mouse splenocytes. The format is cell-based. The following applies: 100 nM, versus control.
The subject of series [5] is SKMEL 188 melanoma cells. The following applies: SKMEL 188 melanoma cells ref 6; cited from earlier work.
For series [6] the following is noted: mice, up to a dose of 60 µg/kg ref 18, 19; cited from earlier work.
The mark [7] stands for this setting: Homo sapiens, 24 h, read-out: VDRE activation (EC50, nM) HaCaT, HaCaT, VDRE-luciferase, 24 h.
The mark [8] stands for this setting: read-out: VDRE activation (EC50, nM) HaCaT, VDRE-luciferase, 24 h.
[9] abbreviates: Homo sapiens, Caco-2, 24 h, read-out: VDRE activation (EC50, nM) Caco-2, Caco-2, VDRE-luciferase, 24 h.
The mark [10] stands for this setting: read-out: VDRE activation (EC50, nM) Caco-2, Caco-2, VDRE-luciferase, 24 h.

In the case of `C=C1CC[C@H](O)C/C1=C/C=C1\CCC[C@@]2(C)[C@H]1CC[C@@H]2[C@@](C)(O)CC[C@H](O)C(C)C` [Compound 17b, 20S,24S-dihydroxyvitamin D3], the Km in series [1] was 2.49 ± 0.59 (mmol of substrate)/(mol of phospholipid). In addition, the EC50 in series [2] (setting [7]), in series [2] (setting [8]), in series [3] (setting [9]) and in series [3] (setting [10]) was above 1000 nM in each case. The “effect on production of IFNγ by splenocytes (in words)” value in series [4] is recorded as “slightly increased production”.

`C=C1CC[C@H](O)C/C1=C/C=C1\CCC[C@@]2(C)[C@H]1CC[C@@H]2[C@@](C)(O)CC[C@@H](O)C(C)C` [Compound 17a, 20S,24R-dihydroxyvitamin D3]: in series [1], the Km is listed as 7.99 ± 4.01 (mmol of substrate)/(mol of phospholipid). In addition, the “kcat, fold higher than that for the 24S isomer” value in series [1] (mouse CYP27B1, versus 20S,24S(OH)2D3) is reported as 18 fold. In addition, in series [1] (mouse CYP27B1, versus 20S,24S(OH)2D3, listed as 20S,24R(OH)2D3), the “catalytic efficiency (kcat/Km), fold higher than 20S,24S(OH)2D3” value was determined as 5 fold. The concentration for a half-maximal effect (EC50) in series [2] (setting [7]), in series [2] (setting [8]), in series [3] (setting [9]) and in series [3] (setting [10]) was above 1000 nM in each case. In addition, the “inhibiting colony formation, potency compared with 1,25(OH)2D3” value in series [5] is “more potent than 1,25(OH)2D3”.

As for `C=C1CC[C@H](O)C/C1=C/C=C1\CCC[C@@]2(C)[C@H]1CC[C@@H]2[C@@](C)(O)CCCC(C)C` [20S(OH)D3, 20S-hydroxyvitamin D3], in series [6], the calcemic activity entry is “noncalcemic”.
